Laboratory results: EP0226985A2, “Method and reagent for determining testosterone as well as a monoclonal antibody suitable for this” (BOEHRINGER MANNHEIM GMBH, priority 1985, dated 1987)

Tests used:
[1] = system: monoklonaler Antikörper MAK 97 (von Klon 97, ECACC 85 12 1702) gegen Testosteron; assay: Cross-reaction with other steroids, competitive ELISA on plates coated with Testosteron-3-carboxymethyloxim-RSA; type: binding, Maus; details: calculated from C = antigen concentration needed to reach 50 % of the maximum signal, relative to Testosteron
Description: (§1) Um die Anwesenheit und Spezifität von Antikörpern gegen Testosteron im Serum immunisierter Mäuse oder in dem Kulturüberstand der Hybridzellen oder in Ascites zu erkennen, wird ein ELISA-Verfahren als Testprinzip verwendet: Mikrotiterplatten werden mit 1 /ug Testosteron-3-carboxymethyloxim-RSA/ml Beschichtungspuffer (0,2 M Natriumcarbonat/-Bicarbonat, pH 9,3-9,5) bei 37° C eine Stunde lang beschichtet. Es wird 10 Minuten mit 0,9 % Natriumchloridlösung und 1 % Albuminlösung nachbehandelt. Anschließend wird mit 0,9 % Natriumchloridlösung gewaschen. Danach wird bei 37° C eine Stunde mit 100 /ul Probe inkubiert und erneut mit 0,9 % Natriumchloridlösung gewaschen. Um eine mögliche Kreuzreaktion mit anderen Steroiden zu prüfen, werden der Probelösung 100 µg - 1 /ug/ml des zu prüfenden Steroids zugesetzt. Eine Erniedrigung des Meßsignals in Gegenwart anderer Steroide bedeutet Kreuzreaktion. Es folgt eine weitere Inkubation (eine Stunde, 37° C) mit 450 mU/ml eines Schaf-Fabanti-- Maus-Fcγ-Peroxidase-Konjugats. Nach einem erneuten Waschschritt mit 0,9 % Natriumchlorid wird die Peroxidaseaktivität in üblicher Weise bestimmt (beispielsweise mit ABTS, 30 Minuten bei Raumtemperatur, abgelesen wird die Extinktionsdifferenz, Δ mE, bei 405 nm).
(§2) Der Test wird, wie in Beispiel 2 beschrieben, durchgeführt. […]

[2] = system: monoklonaler Antikörper MAK 160 (von Klon 160, ECACC 85 12 1701) gegen Testosteron; assay: as above; type: binding, Maus; details: calculated from C = antigen concentration needed to reach 50 % of the maximum signal, relative to Testosteron
Description: as §1, §2

Compound: C[C@]12CCC(=O)C[C@@H]1CC[C@@H]1[C@@H]2CC[C@]2(C)[C@@H](O)CC[C@@H]12 [5α-Dihydrotestosteron]
- Kreuzreaktion in % mit [1]: 5%
- Kreuzreaktion in % mit [2]: 4%
